# Results from PubChem BioAssay (NCI).
#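 Tested at 5 concentrations; 48 h exposure; 96-well plates; endpoints linearly interpolated, else capped at highest concentration. TGI is the concentration that stops growth completely.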
# How the values were obtained:
# Test in all cases: growth of human tumour cells (NCI), 48 h
# [1] = system: K-562 leukemia
# [2] = system: M14 melanoma
# [3] = system: HOP-62 NSCLC
# [4] = system: SF-295 CNS
# [5] = system: SF-539 CNS
# [6] = system: HS 578T breast
# [7] = system: A498 renal
# [8] = system: A549 NSCLC
# [9] = system: OVCAR-5 ovarian
# [10] = system: KM12 colon
# [11] = system: MDA-N
# [12] = system: MDA-MB-435
# [13] = system: RXF 393 renal
# [14] = system: MCF7 breast
# [15] = system: HOP-92 NSCLC
# [16] = system: OVCAR-8 ovarian
# [17] = system: NCI/ADR-RES ovarian
# [18] = system: IGROV1 ovarian
# [19] = system: COLO 205 colon
# [20] = system: CAKI-1 renal
# [21] = system: U251 CNS
# [22] = system: SW-620 colon
# [23] = system: SN12C renal
# [24] = system: NCI-H226 lung
# [25] = system: PC-3 prostate
# [26] = system: SNB-75 CNS
# [27] = system: DU-145 prostate
# [28] = system: NCI-H522 lung
# [29] = system: UACC-62 melanoma
# [30] = system: HCT-15 colon
# [31] = system: NCI-H460 lung
# [32] = system: RPMI-8226 leukemia
# [33] = system: MALME-3M melanoma
# [34] = system: SK-OV-3 ovarian
# [35] = system: OVCAR-4 ovarian
# [36] = system: NCI-H23 lung
# [37] = system: SR leukemia
# [38] = system: HL-60(TB) leukemia
# [39] = system: MDA-MB-231 breast
# [40] = system: SNB-19 CNS
# [41] = system: LOX IMVI melanoma
# [42] = system: CCRF-CEM leukemia
# [43] = system: MOLT-4 leukemia
# [44] = system: HT29 colon
# [45] = system: HCT-116 colon
# [46] = system: OVCAR-3 ovarian
# [47] = system: 786-0 renal
# [48] = system: SK-MEL-28 melanoma
# [49] = system: UO-31 renal
# [50] = system: TK-10 renal
# [51] = system: BT-549 breast
# [52] = system: UACC-257 melanoma
# [53] = system: EKVX NSCLC
# [54] = system: SK-MEL-2 melanoma
# [55] = system: T-47D breast
# [56] = system: SF-268 CNS
# [57] = system: SK-MEL-5 melanoma
# [58] = system: ACHN renal
# [59] = system: HCC-2998 colon
compound,measurement,setting,value
Cc1ccc(S(=O)(=O)/N=C(\N)N(C)N=O)cc1,TGI,[1],> 100 µM
same,TGI,[2],> 100 µM
same,TGI,[3],> 100 µM
same,TGI,[4],> 100 µM
same,TGI,[5],> 100 µM
same,TGI,[6],> 100 µM
same,TGI,[7],> 100 µM
same,TGI,[8],> 100 µM
same,TGI,[9],> 100 µM
same,TGI,[10],> 100 µM
same,TGI,[11],> 100 µM
same,TGI,[12],> 100 µM
same,TGI,[13],> 100 µM
same,TGI,[14],> 100 µM
same,TGI,[15],> 100 µM
same,TGI,[16],> 100 µM
same,TGI,[17],> 100 µM
same,TGI,[18],> 100 µM
same,TGI,[19],> 100 µM
same,TGI,[20],> 100 µM
same,TGI,[21],> 100 µM
same,TGI,[22],> 100 µM
same,TGI,[23],> 100 µM
same,TGI,[24],> 100 µM
same,TGI,[25],> 100 µM
same,TGI,[26],> 100 µM
same,TGI,[27],> 100 µM
same,TGI,[28],> 100 µM
same,TGI,[29],> 100 µM
same,TGI,[30],> 100 µM
same,TGI,[31],> 100 µM
same,TGI,[32],> 100 µM
same,TGI,[33],> 100 µM
same,TGI,[34],> 100 µM
same,TGI,[35],> 100 µM
same,TGI,[36],> 100 µM
same,TGI,[37],> 100 µM
same,TGI,[38],> 100 µM
same,TGI,[39],> 100 µM
same,TGI,[40],> 100 µM
same,TGI,[41],> 100 µM
same,TGI,[42],> 100 µM
same,TGI,[43],> 100 µM
same,TGI,[44],> 100 µM
same,TGI,[45],> 100 µM
same,TGI,[46],> 100 µM
same,TGI,[47],> 100 µM
same,TGI,[48],> 100 µM
same,TGI,[49],> 100 µM
same,TGI,[50],> 100 µM
same,TGI,[51],> 100 µM
same,TGI,[52],> 100 µM
same,TGI,[53],> 100 µM
same,TGI,[54],> 100 µM
same,TGI,[55],> 100 µM
same,TGI,[56],> 100 µM
C=CCCCC1SC2=C(CC)CCCN2C1=O (stereo not drawn),TGI,[1],> 100 µM
same,TGI,[2],> 100 µM
same,TGI,[3],> 100 µM
same,TGI,[4],> 100 µM
same,TGI,[5],> 100 µM
same,TGI,[6],> 100 µM
same,TGI,[7],> 100 µM
same,TGI,[8],> 100 µM
same,TGI,[9],> 100 µM
same,TGI,[10],> 100 µM
same,TGI,[11],> 100 µM
same,TGI,[12],> 100 µM
same,TGI,[13],> 100 µM
same,TGI,[14],> 100 µM
same,TGI,[15],> 100 µM
same,TGI,[16],> 100 µM
same,TGI,[17],> 100 µM
same,TGI,[18],> 100 µM
same,TGI,[19],> 100 µM
same,TGI,[20],> 100 µM
same,TGI,[21],> 100 µM
same,TGI,[22],> 100 µM
same,TGI,[23],> 100 µM
same,TGI,[24],> 100 µM
same,TGI,[25],> 100 µM
same,TGI,[27],> 100 µM
same,TGI,[28],> 100 µM
same,TGI,[29],> 100 µM
same,TGI,[30],> 100 µM
same,TGI,[32],> 100 µM
same,TGI,[33],> 100 µM
same,TGI,[34],> 100 µM
same,TGI,[35],> 100 µM
same,TGI,[36],> 100 µM
same,TGI,[37],> 100 µM
same,TGI,[38],> 100 µM
same,TGI,[39],> 100 µM
same,TGI,[40],> 100 µM
same,TGI,[41],> 100 µM
same,TGI,[43],> 100 µM
same,TGI,[44],> 100 µM
same,TGI,[45],> 100 µM
same,TGI,[46],> 100 µM
same,TGI,[47],> 100 µM
same,TGI,[48],> 100 µM
same,TGI,[49],> 100 µM
same,TGI,[57],> 100 µM
same,TGI,[58],> 100 µM
same,TGI,[50],> 100 µM
same,TGI,[51],> 100 µM
same,TGI,[52],63.1 µM
same,TGI,[53],> 100 µM
same,TGI,[54],> 100 µM
same,TGI,[55],> 100 µM
same,TGI,[56],> 100 µM
CCN1C(NN)=NS(=O)(=O)c2ccccc21,TGI,[1],> 100 µM
same,TGI,[2],> 100 µM
same,TGI,[3],> 100 µM
same,TGI,[4],> 100 µM
same,TGI,[5],> 100 µM
same,TGI,[6],> 100 µM
same,TGI,[7],> 100 µM
same,TGI,[8],> 100 µM
same,TGI,[9],> 100 µM
same,TGI,[10],> 100 µM
same,TGI,[11],> 100 µM
same,TGI,[12],> 100 µM
same,TGI,[13],> 100 µM
same,TGI,[14],> 100 µM
same,TGI,[15],> 100 µM
same,TGI,[16],> 100 µM
same,TGI,[17],> 100 µM
same,TGI,[18],> 100 µM
same,TGI,[19],> 100 µM
same,TGI,[20],> 100 µM
same,TGI,[21],> 100 µM
same,TGI,[22],> 100 µM
same,TGI,[23],> 100 µM
same,TGI,[59],> 100 µM
same,TGI,[24],> 100 µM
same,TGI,[25],> 100 µM
same,TGI,[27],> 100 µM
same,TGI,[28],> 100 µM
same,TGI,[29],> 100 µM
same,TGI,[30],> 100 µM
same,TGI,[31],> 100 µM
same,TGI,[34],> 100 µM
same,TGI,[35],> 100 µM
same,TGI,[36],> 100 µM
same,TGI,[37],> 100 µM
same,TGI,[38],> 100 µM
same,TGI,[39],> 100 µM
same,TGI,[40],> 100 µM
same,TGI,[41],> 100 µM
same,TGI,[42],> 100 µM
same,TGI,[43],> 100 µM
same,TGI,[44],> 100 µM
same,TGI,[45],> 100 µM
same,TGI,[46],> 100 µM
same,TGI,[47],> 100 µM
same,TGI,[48],> 100 µM
same,TGI,[49],> 100 µM
same,TGI,[57],> 100 µM
same,TGI,[58],> 100 µM
same,TGI,[50],> 100 µM
same,TGI,[51],> 100 µM
same,TGI,[52],> 100 µM
same,TGI,[53],> 100 µM
same,TGI,[54],> 100 µM
same,TGI,[55],> 100 µM
same,TGI,[56],> 100 µM
COC(=O)Nc1nc2ccc(S(=O)(=O)n3nnc4ccccc43)cc2[nH]1,TGI,[1],> 100 µM
same,TGI,[2],> 100 µM
same,TGI,[3],51.2 µM
same,TGI,[4],90.7 µM
same,TGI,[5],24.4 µM
same,TGI,[6],> 100 µM
same,TGI,[7],> 100 µM
same,TGI,[8],> 100 µM
same,TGI,[9],> 100 µM
same,TGI,[10],> 100 µM
same,TGI,[11],> 100 µM
same,TGI,[12],> 100 µM
same,TGI,[13],36.1 µM
same,TGI,[14],> 100 µM
same,TGI,[15],35.8 µM
same,TGI,[16],> 100 µM
same,TGI,[17],> 100 µM
same,TGI,[18],> 100 µM
same,TGI,[19],> 100 µM
same,TGI,[20],> 100 µM
same,TGI,[21],> 100 µM
same,TGI,[22],> 100 µM
same,TGI,[23],> 100 µM
same,TGI,[25],> 100 µM
same,TGI,[26],21.4 µM
same,TGI,[27],> 100 µM
same,TGI,[28],> 100 µM
same,TGI,[29],> 100 µM
same,TGI,[30],> 100 µM
same,TGI,[31],> 100 µM
same,TGI,[32],> 100 µM
same,TGI,[33],> 100 µM
same,TGI,[34],41.2 µM
same,TGI,[35],> 100 µM
same,TGI,[36],> 100 µM
same,TGI,[37],> 100 µM
same,TGI,[38],> 100 µM
same,TGI,[39],> 100 µM
same,TGI,[40],> 100 µM
same,TGI,[41],> 100 µM
same,TGI,[42],> 100 µM
same,TGI,[43],> 100 µM
same,TGI,[44],> 100 µM
same,TGI,[45],> 100 µM
same,TGI,[46],> 100 µM
same,TGI,[47],> 100 µM
same,TGI,[48],> 100 µM
same,TGI,[49],> 100 µM
same,TGI,[57],> 100 µM
same,TGI,[58],> 100 µM
same,TGI,[51],48.1 µM
same,TGI,[52],43.9 µM
same,TGI,[53],> 100 µM
same,TGI,[54],> 100 µM
same,TGI,[55],> 100 µM
same,TGI,[56],> 100 µM
